“Also recorded” adds a separate entry of the source.
How the values were obtained:
[1] = tested on: experimental autoimmune encephalomyelitis (EAE); experiment: Active EAE, 2×MOG35-55+CFA, clinical course (Example 1/2); assay type: in vivo, C57BL/6J (B6) mice; conditions: for Clinical EAE course: daily treatment from D0, 5 mg/kg/d IP
Protocol: EAE was induced in female C57BL/6J mice as described previously (Noubade et al., 2007, J Clin Invest., 117(11):3507-3518). Mice were injected subcutaneously with an emulsion containing 200 μg of MOG35-55 peptide ([…] (SEQ ID NO: 1) and complete Freund adjuvant (CFA; Sigma-Aldrich) supplemented with 200 μg of Mycobacterium tuberculosis H37RA (Difco Laboratories) in the posterior right and left flank; 1 week later, all mice were similarly injected at 2 sites on the right and left flank anterior of the initial injection sites (2×MOG35-55+CFA). Mice received 5 mg/kg/d SB203580 dihydrochloride (Tocris) by IP injection in a total volume of 200 μL or an equal volume of carrier every day from the day of immunization.
EAE was induced in B10.BR, MKK6-Tg, and dn-p38-Tg mice by immunizing with a single injection of 200 μg of MOG97-114 (TCFFRDHSYQEEAAVELK (SEQ ID NO: 2)) or PLP180-209 ([…] (SEQ ID NO: 3)) in CFA. Immediately thereafter, each animal received 200 ng of PTX (List Biologic Laboratories) by IV injection. Mice were scored daily starting at day 10 after injection as previously described (Noubade et al., 2007, J Clin Invest., 117(11):3507-3518). Clinical quantitative trait variables were generated as previously described (Butterfield et al., 1998, J Immunol., 161(4):1860-1867).
Age-matched male and female C57BL/6J (B6) mice were treated with the p38 MAPK inhibitor SB203580 (SB) starting at the time of immunization for the induction of EAE with myelin oligodendrocyte glycoprotein peptide 35-55 (MOG35-55) and complete Freund's adjuvant (CFA). Clinical EAE course in male and female B6 mice immunized with 2×MOG35-55-CFA treated daily with either carrier or SB starting on D0. […] In separate experiments, Clinical EAE course in female B6 mice immunized with 2×MOG35-55-CFA and randomly selected for daily treatment with either carrier or SB upon reaching a clinical score≧1. It was observed that disease progression could also be halted in female mice if the inhibitor was administered at the first onset of clinical signs (FIG. 1B).

[2] = tested on: experimental autoimmune encephalomyelitis (EAE); experiment: Active EAE, 2×MOG35-55/CFA protocol, clinical course (Example 3); assay type: in vivo, C57BL/6J (B6) mice; conditions: 5 mg/kg/day i.p. daily from day of immunization; for EAE disease course: 5 mg/kg/day
Protocol: Female (FIG. 15A) and male (FIG. 15B) B6 mice were immunized using the 2×MOG35-55/CFA protocol, followed by daily injections of SB203580 or carrier. Data represent 2 independent experiments, pooled. Data were analyzed as indicated in Materials and Methods. […] For individual time points, * ≦0.05; ** ≦0.01, *** ≦0.001, **** ≦0.0001. Numbers in parentheses indicate the total number of animals studied.
EAE was induced essentially as described previously (Noubade R, et al., J Clin Invest. 2007 November; 117(11):3507-18). Briefly, mice were injected s.c. with an emulsion containing 100 μg of MOG35-55 peptide ([…]; SEQ ID NO: 1) (Anaspec, USA) and complete Freund's adjuvant (CFA) (Sigma-Aldrich, St. Louis, Mo.) supplemented with 200 μg of Mycobacterium tuberculosis H37Ra (Difco Laboratories, Detroit, Mich.) in the posterior right and left flanks. One week later all mice were similarly injected at two sites on the right and left flank anterior of the initial injection sites (2×MOG35-55/CFA). Alternatively, mice were immunized with 200 μg of MOG35-55 in CFA, followed by i.v. administration of 200 ng pertussis toxin (List Biological) (1×MOG35-55/CFA/PTX). In some experiments (as indicated), mice received 5 mg/kg/day of SB203580 dihydrochloride (Tocris, Ellisville, Mo.) by i.p. injection in a total volume of 200 μl or an equal volume of carrier daily starting on the day of immunization. Mice were scored daily starting at day 10 post-injection as previously described (Noubade R, et al., J Clin Invest. 2007 November; 117(11):3507-18). Passive EAE was induced as follows. […]
All statistical analyses were performed using GraphPad Prism 6 software (GraphPad Software Inc, San Diego, Calif.). The significance of differences in cytokine production and flow cytometry data were determined using 2-way ANOVA. The significance of differences observed in clinical course of EAE was determined by 2-way ANOVA and post-hoc analysis using Fisher's LSD test for individual time points (significance indicated by “*” above each time point). […] EAE data from replicate experiments were analyzed by heterogeneity testing. […]

[3] = female B6 mice, treatment from D0 stopped after 30 days

Question: Which “Clinical EAE course” value ([1]; female B6 mice) does the source give for C[S+]([O-])c1ccc(-c2nc(-c3ccncc3)c(-c3ccc(F)cc3)[nH]2)cc1 (stereo not shown) [SB203580] here?
Answer: Its value is “female-specific therapy for EAE; also recorded: ameliorated EAE”.

Question: What about the “Clinical EAE course” value ([1]; female B6 mice, listed as SB) of the same compound?
Answer: Its value is “fully prevented disease; also recorded: completely inhibits EAE”.

Question: And the “Disease progression (clinical EAE course)” value ([1]; female B6 mice, daily treatment started upon reaching clinical score ≧1)?
Answer: Its value is “halted”.

Question: And the “Disease severity on readministration” value ([1]; female B6 mice, re-treated from D41 thru D60)?
Answer: Its value is “modest reduction and stabilization of their disease severity”.

Question: And the “EAE severity reached after discontinuing treatment” value [1, 3]?
Answer: The value was “equivalent severity to those seen in carrier-treated mice”.

Question: What about the “Time to appearance of clinical signs of EAE after discontinuing treatment” value [1, 3] of the same compound?
Answer: The value was 2 to 3 days.

Question: What about the “Clinical EAE course” value ([1]; male B6 mice, listed as SB) of the same compound?
Answer: Its value is “completely unresponsive”.

Question: And the EAE disease course ([2]; female B6 mice)?
Answer: The EAE disease course was “robustly ameliorated; also recorded: significant difference in EAE course”.

Question: What about the EAE onset ([2]; male B6 mice) of the same compound?
Answer: The EAE onset was “accelerated”.

Question: What about the EAE disease course ([2]; male B6 mice) of the same compound?
Answer: Its EAE disease course is “showed no therapeutic efficacy; also recorded: augmented; also recorded: did not reduce EAE”.
